This is an account of results in paper PMC4871480, “A Miniaturized Screen of a Schistosoma mansoni Serotonergic G Protein-Coupled Receptor Identifies Novel Classes of Parasite-Selective Inhibitors” (PLoS Pathogens, 2016).

“Also recorded” adds a separate entry of the source. Where two headings read alike, the source gives them in different places. Some results are limits rather than exact numbers.

The test system of assay [1] is S. mansoni schistosomules. Kind of assay: Schistosomule contractility assay. It is filed as in vivo, Schistosoma mansoni. The settings on record: Schistosoma mansoni; for IC50: read-out: IC50 (inhibition of 5-HT evoked contractions). Here is the method:
Biomphalaria glabrata (M-line) snails exposed to Schistosoma mansoni miracidia (Strain PR-1) were obtained from BEI Resources (Cat. number NR-21961) and cercaria were shed following exposure to light (1.5 hours). Cercaria were manually transformed into schistosomula by vortexing (3 x 45 seconds, each separated by 3 minutes on ice) and tails were removed by gradient centrifugation (24ml Percoll, 4ml 10X EMEM, 1.5ml penicillin-streptomycin, 1ml of 1M HEPES in 0.85% NaCl, 9.5ml distilled water) at 500g/15min at 4°C. Supernatant containing tails was discarded, and schistosomules were resuspended in Basch media and incubated (37°C, 5% CO2) overnight before conducting mobility assays. For contractility experiments, somules were incubated in 5-HT free Basch media to resolve a basal contractility rate. […] Schistosomules were incubated in 24 well plates (~200 schistosomules / 0.5mL media per well) for 30 minutes (37°C/5% CO2) prior to acquiring videos of schistosome movement (1 minute recordings / well) using a Nikon Coolpix 5700 camera affixed to a Nikon Eclipse TS100 microscope (10x objective). The WrmTrck plugin for ImageJ was used to quantify worm mobility. Briefly, the major axis of each schistosomule body length was extracted from the raw output of WrmTrck and an average length was determined for the duration of the recording. Contractions were quantified by determining the number of episodes during which the worm body length deviated from the average by over 20%. S. mansoni protocols were approved by the Iowa State University Institutional Biosafety Committee.

The next assay has as its system regenerating planarians. More on the design: method as in PMID 24586156. The settings on record: cited from earlier work.
The test system of a further assay is adult schistosomes. Kind of assay: Adult schistosome mobility assay. In kind it is in vivo, Schistosoma mansoni. The conditions noted are these: 10μM; for effect on 5-HT evoked increases in worm movement / time to recovery of movement after drug removal, male worms: 5-HT 100μM; for time to recovery of movement after drug removal, male worms: 2 hour exposure; for effect on basal movement of adult worms: worms at rest. The protocol:
Female Swiss Webster mice exposed to Schistosoma mansoni cerceria (Strain PR-1) at 5–7 weeks old were obtained from BEI Resources (Cat. number NR-34792) and sacrificed 6–8 weeks post-infection. Mature S. mansoni were harvested from the mesenteric vasculature by portal perfusion. Briefly, mice were anesthetized in a CO2 chamber and sacrificed by cervical dislocation. Mice were perfused with sodium citrate (25mM) and adult schistosomes were harvested from the mesenteric veins. Schistosomes were washed in RPMI media containing penicillin (1000 units/mL), streptomycin (1000 μg/mL) and 25mM HEPES, then transferred to RPMI media supplemented with 2mM glutamine and 5% heat inactivated FBS. Worms were incubated overnight at 37°C, 5% CO2 before conducting assays. Recordings of adult schistosome movement were captured using a Zeiss Discovery v20 stereomicroscope and a QiCAM 12-bit cooled color CCD camera. Videos were acquired at a rate of four frames per second for one minute. Recordings of female worms were acquired at 7.6x magnification, 30 mm field of view and recordings of male worms were acquired at a 5.1x magnification, 45 mm field of view. Analysis was performed in ImageJ as described previously. Briefly, image (.tiff) stacks of each recording were imported and processed by converting to binary format so that pixel measurements represent area of the worms’ bodies. Mobility was quantified by measuring the difference in pixels resulting from subtracting the value of one frame (n) from those of the next frame in the sequence (n+1). This difference was expressed as a percentage of the pixels in the initial frame (n), providing a measurement of the worms’ movement over a period of 0.25 seconds. This calculation was performed for each frame in the video, and the results were averaged over the length of the recording. Values reported represent the mean (±) standard error of at least three independent experiments. Animal work was carried out with the oversight and approval of the Laboratory Animal Resources facility at the Iowa State University College of Veterinary Medicine.

The target of assay [2] is T1, Sm.5HTR (Schistosoma mansoni, UniProt G4V5G4). The assay is described as follows: cell-based. It is filed as cell-based. The conditions noted are these: for potency (IC50) at Sm.5HTR: Fig 7 quadrant. Here is the method:
(§1) HEK293 cells (ATCC CRL-1573.3) were cultured in DMEM supplemented with 10% fetal bovine serum (FBS), penicillin (100 units/ml), streptomycin (100 μg/ml), and L-glutamine (290 μg/ml). Cells were transiently transfected (ViaFect, Promega) as per the manufacturer’s protocol at a density of 2x10^6 cells per T-25 cell-culture flask. Cells were transfected with plasmids encoding GloSensor (Promega) and either Sm.5HTR (Smp_126730, GenBank accession number KF444051.1) or Sm.5HTRL (KX150867), bothGPCRs being codon optimized for mammalian expression, or Hs.5HT7a (GenBank accession number NM_000872.4, R&D Systems) subcloned into pCS2(-). Cell culture reagents were from Invitrogen. Epitope tagged constructs were used to verify expression, and untagged constructs used for all luminescence assays.
(§2) For assays performed on adherent cells, HEK-293 cells were transferred one day post transfection to 96 well, solid white plates (Corning, cat # 3917) coated with 0.01% poly-L-lysine (Sigma Aldrich) at a density of 5 x 10^4 cells / well in DMEM supplemented with 1% dialyzed FBS (Gibco). After overnight culture (37°C/5% CO2), media was decanted and replaced with 100μL / well HBSS supplemented with 0.1% BSA, 20mM HEPES (pH 7.4) and GloSensor reagent. Plates were allowed to equilibrate at room temperature for two hours prior to performing luminescence assays (GloMax-Multi Detection System plate reader, Promega). Conditions for individual assays were described as per figure legends. The standard assay to detect changes in cAMP utilized the F22 sensor in media supplemented with IBMX (200μM). Ligands were added at a concentration of 20x per well for experiments (i.e. 5μl of drug solution added to 100μl of cells). […] For the resazurin reduction assay for cellular viability, cells were incubated with resazurin (final concentration, 10μM) and tested ligands with fluorescence measurements (560 nm excitation/590 nm emission) made at 1.5hr intervals.

Assay [3] has as its target T1, Sm.5HTR. The assay is described as follows: Antagonist washout (inactivating antagonist) GloSensor assay on suspension cells. In kind it is cell-based. The protocol:
To test putative irreversible antagonists, assays on suspension cells were performed one day post transfection. […] Compounds were added at 10 μM, and after 30 minute incubation at room temperature cells were centrifuged (300 RCF, 5 minutes) and resuspended in fresh media. This wash step was repeated, and cells were resuspended in HBSS supplemented with 0.1% BSA, 20mM HEPES and GloSensor reagent. Cells were gently rotated to prevent aggregation and settling over the course of the two hour equilibration period, after which time they were transferred to 96 well plates at a density of 8 x 10^4 cells / 100μL per well and assays described for adherent cells.

A further assay has as its target T2, Hs.5HT7R (Homo sapiens, UniProt P34969).
T2 construct: host or cells: HEK293 (ATCC CRL-1573.3), transient transfection, pCS2(-) vector
Kind of assay: GloSensor cAMP assay in HEK293 cells expressing Hs.5HT7R. In kind it is cell-based. The conditions noted are these: for potency (IC50) at Hs.5HT7R: Fig 7 quadrant. Here is the method:
as §1, §2
For orientation: Cyclic AMP is a second messenger, typically raised through Gs and lowered through Gi signalling.

In another assay the target is Sm.5HTRL (Schistosoma mansoni, UniProt A0A173FEI8). Kind of assay: GloSensor cAMP assay in HEK293 cells expressing Sm.5HTRL. The settings on record: antagonists 10μM, 5-HT EC80 dose. In kind it is cell-based. The protocol: as §1, §2
Sm.5HTRL, sequence (A0A173FEI8 entry or part of it): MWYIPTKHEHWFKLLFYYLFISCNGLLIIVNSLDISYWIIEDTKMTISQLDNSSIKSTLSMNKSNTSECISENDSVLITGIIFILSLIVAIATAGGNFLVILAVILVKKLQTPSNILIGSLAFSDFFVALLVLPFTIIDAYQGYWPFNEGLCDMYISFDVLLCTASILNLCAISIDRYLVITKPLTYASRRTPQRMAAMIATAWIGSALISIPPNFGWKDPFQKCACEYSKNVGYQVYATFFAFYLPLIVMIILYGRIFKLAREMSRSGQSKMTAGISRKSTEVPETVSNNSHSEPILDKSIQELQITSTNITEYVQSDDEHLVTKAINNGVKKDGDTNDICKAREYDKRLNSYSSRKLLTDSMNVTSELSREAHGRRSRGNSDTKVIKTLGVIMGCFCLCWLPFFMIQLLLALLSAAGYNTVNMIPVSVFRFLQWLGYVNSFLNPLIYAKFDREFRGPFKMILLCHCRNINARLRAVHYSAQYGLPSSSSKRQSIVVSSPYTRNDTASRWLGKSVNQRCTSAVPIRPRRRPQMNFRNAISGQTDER

T2 sequence (P34969 1-445 isoform P34969-2): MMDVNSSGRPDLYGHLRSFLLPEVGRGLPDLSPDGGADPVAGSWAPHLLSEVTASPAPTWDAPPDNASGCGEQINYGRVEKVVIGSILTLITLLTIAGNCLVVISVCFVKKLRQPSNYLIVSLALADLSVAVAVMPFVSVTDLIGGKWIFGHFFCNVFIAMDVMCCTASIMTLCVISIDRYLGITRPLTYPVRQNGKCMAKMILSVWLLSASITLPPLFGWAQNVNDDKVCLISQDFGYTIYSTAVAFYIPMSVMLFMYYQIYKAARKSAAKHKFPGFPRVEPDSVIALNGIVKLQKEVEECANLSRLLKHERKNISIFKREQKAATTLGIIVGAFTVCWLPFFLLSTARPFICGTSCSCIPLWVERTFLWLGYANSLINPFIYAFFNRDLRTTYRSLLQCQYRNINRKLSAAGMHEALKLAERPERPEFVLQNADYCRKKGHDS
T1 sequence (G4V5G4 entry or part of it): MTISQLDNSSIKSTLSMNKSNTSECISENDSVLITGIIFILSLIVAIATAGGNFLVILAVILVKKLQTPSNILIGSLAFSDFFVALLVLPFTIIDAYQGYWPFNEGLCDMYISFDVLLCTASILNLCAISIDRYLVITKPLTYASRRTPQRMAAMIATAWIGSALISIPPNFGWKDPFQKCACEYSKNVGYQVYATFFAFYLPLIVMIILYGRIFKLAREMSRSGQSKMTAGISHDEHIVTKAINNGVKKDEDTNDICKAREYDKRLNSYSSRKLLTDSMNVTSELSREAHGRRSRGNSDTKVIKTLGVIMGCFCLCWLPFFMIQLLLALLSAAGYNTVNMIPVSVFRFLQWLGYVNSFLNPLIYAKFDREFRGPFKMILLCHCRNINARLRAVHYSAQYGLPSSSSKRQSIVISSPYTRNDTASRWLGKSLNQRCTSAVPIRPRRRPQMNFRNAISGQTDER

The IC50 is the point on the concentration scale where inhibition reaches its midpoint. As for `CC(C)C[C@H]1C(=O)N2CCC[C@H]2[C@]2(O)O[C@](NC(=O)[C@@H]3C=C4c5cccc6[nH]c(Br)c(c56)C[C@H]4N(C)C3)(C(C)C)C(=O)N12` [bromocriptine], the IC50 in assay [1] was no more than 1000 nM. Further, the “concentration evoking bipolarity, fold less than PZQ” value with regenerating planarians is on record as 100 fold. In addition, in the assay with adult schistosomes, the “effect on 5-HT evoked increases in worm movement” value (from here on “effect on 5-HT evoked increases”) was “inhibited”; the “time to recovery of movement after drug removal, male worms” value turned out to be 24 h; the “effect on basal movement of adult worms” value is recorded as “markedly inhibited worm movements at rest”. At Sm.5HTR [2] (Fig 5F), the “ligand type at Sm.5HTR” value is given as “Antagonist”. Besides, the “potency (IC50) at Sm.5HTR” value on Sm.5HTR [2] is reported as “sub-μM potency”. For the same molecule, the Kb at Sm.5HTR [2] (KB (affinity constant, Schild regression), right-shift of 5-HT dose-response) is 410 nM. On Sm.5HTR [2] (Sm.5HTR over Hs.5HT7R), the “selectivity for the parasitic 5-HT receptor” value is recorded as ~ 10 fold. In addition, the “inhibition of 5-HT evoked cAMP generation” value at Sm.5HTR [2] (at higher concentrations (>10μM)) is listed as “almost complete inhibition”. Moreover, at Sm.5HTR [2] (dose response, Fig 5A), the “agonist efficacy at Sm.5HTR” value is reported as “no efficacy”. The “acute inhibition of 5-HT (10μM) response at Sm.5HTR” value at Sm.5HTR [2] (drug 10μM, preincubation) is on record as “acutely inhibited”. Moreover, at Sm.5HTR [2] (pKB ± S.E.M, Schild regression), the Kb is 407 nM. In addition, the “inhibition of Sm.5HTR after antagonist wash-out” value against Sm.5HTR [3] (10μM for 30 mins, washout, 5-HT response 1hr later) was “long-lasting inhibition”. In addition, the “potency for Sm.5HTR inhibition after washout” value at Sm.5HTR [3] (titration, Fig 6E) is “most potent”. Further, the “potency (IC50) at Hs.5HT7R” value on Hs.5HT7R is reported as “supra-μM potency”.

For the molecule `COc1cc2c(cc1OC)[C@@H]1Cc3ccc(OC)c(OC)c3CN1CC2` [rotundine], on Sm.5HTRL, the “inhibition of 5-HT evoked cAMP generation through Sm.5HTRL” value is recorded as “inhibited 5-HT evoked cAMP generation”. Further, the IC50 in assay [1] was no more than 1000 nM. In addition, in the assay with adult schistosomes, the “effect on 5-HT evoked increases” value is recorded as “inhibited”; the “time to recovery of movement after drug removal, male worms” value is no more than 3 h; the “effect on basal movement of adult worms” value is “markedly inhibited worm movements at rest”. In addition, at Sm.5HTR [2], the IC50 was determined as 701 ± 207 nM, the “selectivity for Sm.5HTR over Hs.5HT7R” value is listed as “clear selectivity for Sm.5HTR; also recorded: clear bias toward Sm.5HTR” and the “potency (IC50) at Sm.5HTR” value is “sub-μM potency”. Further, the IC50 on Sm.5HTR [2] (IC50 (antagonism of 5-HT evoked cAMP generation), 5-HT at EC80) is roughly 700 nM. Also, the “potency (IC50) at Hs.5HT7R” value on Hs.5HT7R was “supra-μM potency”. Moreover, at Hs.5HT7R (concentrations up to 50μM), the “effect on Hs.5HT7” value is “lacking any effect”.

One may read the inhibition as the change of the read-out against control, counted positive when it falls. `COc1cc2c(cc1OC)C1CC(=O)C(CC(C)C)CN1CC2` (stereo not drawn) [tetrabenazine]: the inhibition at 100 µM in assay [1] (read-out: inhibition of 5-HT evoked contractility) was roughly 50%. At Sm.5HTR [2], the “potency (IC50) at Sm.5HTR” value is on record as “sub-μM potency”. Further, the “GPCR inhibition profile compared with rotundine” value on Sm.5HTR [2] (Sm.5HTR vs Hs.5HT7R, Fig F in S1 Text) was “selectivity for Sm.5HTR retained”. In addition, the “potency (IC50) at Hs.5HT7R” value at Hs.5HT7R was “supra-μM potency”.

As for `COc1ccc2cc1Oc1ccc(cc1)C[C@H]1c3cc(c(OC)cc3CCN1C)Oc1c(OC)c(OC)cc3c1[C@H](C2)N(C)CC3` [tetrandrine], the IC50 in assay [1] is no more than 1000 nM. Moreover, in the assay with adult schistosomes, the “effect on 5-HT evoked increases” value is given as “lacked an inhibitory effect” and the “effect on basal movement of adult worms” value was “enhanced movements of isolated female worms”. Further, on Sm.5HTR [2], the “potency (IC50) at Sm.5HTR” value is given as “sub-μM potency”. Besides, the “potency (IC50) at Hs.5HT7R” value on Hs.5HT7R is “supra-μM potency”.
